Results reported in patent US20240180859A1, “COMPOSITIONS AND METHODS FOR IMMUNE-MEDIATED INFLAMMATORY DISEASES” (Thetis Pharmaceuticals LLC, priority 2022, published 2024).

Assays:
[1] = tested on: CD4+ and CD8+ cells in the liver; settings: concanavalin A-induced murine model; cited from earlier work
[2] = tested on: polymorphonuclear leukocyte (PMN) recruitment; settings: equimolar dose; cited from earlier work
MC-38 cells = test: MC38 model of colorectal cancer, subcutaneous tumors; assay type: in vivo, C57BL/6J male mice; settings: 300 ug/kg, SC, P<0.05 vs placebo
Method: A representative compound of Formula IV, bis RvE1 magnesium di-lysinate (Compound 1), was tested for efficacy in several preclinical mouse models including the Panc2-H7 model of pancreatic cancer, and the MC38 model of colorectal cancer. These models are well established, highly tumorigenic syngeneic models in which murine cancer cell lines are injected subcutaneously (SC) into the dorsum of C57BL/6J mice. If left untreated, these tumors grow rapidly and lead to death or euthanasia, per protocol. As detailed below in Examples 1-4 and the accompanying figures, bis RvE1 Mg-di-lysinate (Compound 1) was unexpectedly effective as an anti-cancer agent in each of these model systems when administered in a less than daily (LTD) dosing regimen. […] Without being bound by any theory, the surprising efficacy of LTD dosing of resolvins in the model systems described here may be the result of durable effects on the inflammatory phenotype of the tumor microenvironment including changes in immune cell phenotype, vascularization, stromal phenotype, and antigen presentation, as well as durable effects on the T-cell compartment such as T-cell priming and increased tumor-infiltrating lymphocytes. […]

subcutaneous KPC tumors = test: RNAseq cell enrichment analysis of tumor samples; assay type: in vivo, mice; settings: Q6D treatment, Day 26, compared to placebo
Method: RNAseq analysis was performed on tumor samples from mice with subcutaneous KPC tumors sacrificed on Day 26 following treatment (Q6D) with bis RvE1 Mg-di-lysinate (Compound 1) compared to placebo. […] Darker color indicates increased gene expression, for various immune cells and other cells, as listed across the top of the heatmap. The boxed cells shown in FIG. 4 indicate an increase in markers of monocytes and DC cell subset (cDCs, pDCs, and iDCs) and markers of NK, CD8+ T cells, Th1 cells, and memory T cells (CD8+ and CD4+) with Compound 1 treatment. […] Namely, these unexpected results may be due to durable effects on the tumor microenvironment including changes in immune cell phenotype and the T-cell compartment such as T-cell priming and increased tumor-infiltrating lymphocytes.

[3] = Subcutaneous PK study of RvE1-Mg-Lys; assay type: in vivo, C57BL/6J mice; settings: 100 or 300 ug/kg subcutaneous injection; baseline to 8 hours
Method: (§1) In the subcutaneous PK study, sixty-nine (69) C57BL/6J mice were administered 100 or 300 ug/kg doses of RvE1-Mg-Lys via subcutaneous injection. Mice were sacrificed and plasma was drawn at the following timepoints: baseline, 5, 15, 30 min, 1, 2, 4 and 8 hours (n=5 mice per timepoint). In the IV and oral PK studies, one-hundred eighty (180) Balb/c mice were administered RvE1-Na at 1 or 10 mg/kg via subcutaneous injection, IV injection, oral gavage (n=6 mice per timepoint). Plasma and lung tissue were assayed at the following timepoints: 0.25, 0.5, 1, 2, 6, 10 and 24 hours. […] Without being bound by any theory, the surprising efficacy of LTD dosing of resolvins in the cancer model systems described here may be the result of durable effects on the tumor microenvironment including changes in immune cell phenotype, vascularization, stromal phenotype, and antigen presentation, as well as durable effects on the T-cell compartment such as T-cell priming and increased tumor-infiltrating lymphocytes.

Panc2-H7 cells = test: Panc2-H7 model of pancreatic cancer, subcutaneous tumors; assay type: in vivo, C57BL/6J male mice; settings: SC
Method: A representative compound of Formula IV, bis RvE1 magnesium di-lysinate (Compound 1), was tested for efficacy in several preclinical mouse models including the Panc2-H7 model of pancreatic cancer, and the MC38 model of colorectal cancer. These models are well established, highly tumorigenic syngeneic models in which murine cancer cell lines are injected subcutaneously (SC) into the dorsum of C57BL/6J mice. If left untreated, these tumors grow rapidly and lead to death or euthanasia, per protocol. As detailed below in Examples 1-4 and the accompanying figures, bis RvE1 Mg-di-lysinate (Compound 1) was unexpectedly effective as an anti-cancer agent in each of these model systems when administered in a less than daily (LTD) dosing regimen. […] Without being bound by any theory, the surprising efficacy of LTD dosing of resolvins in the model systems described here may be the result of durable effects on the inflammatory phenotype of the tumor microenvironment including changes in immune cell phenotype, vascularization, stromal phenotype, and antigen presentation, as well as durable effects on the T-cell compartment such as T-cell priming and increased tumor-infiltrating lymphocytes.
Based on the previous findings in the MC38 colorectal cancer model with less than daily (LTD) dosing, a study in the Panc2-H7 model was conducted to assess the efficacy of LTD dosing of bis RvE1 Mg-di-lysinate in a different tumor model. A total of forty (40) C57BL/6J male mice were injected subcutaneously with 1×10e6 living Panc2-H7 cells. Once tumors reached 160-320 mm^3 in size, the mice were randomized (n=8 per group) to treatment with vehicle or SC injection with bis RvE1 Mg-di-lysinate at 30 ug/kg and 300 ug/kg (QD, Q7D).

[4] = PK studies of RvE1-Na (subcutaneous, IV, oral), plasma and lung tissue; assay type: in vivo, Balb/c mice; settings: 0.25-24 hours
Method: as §1

Structure (SMILES): CC/C=C\C[C@H](O)/C=C/C=C\C=C\C=C\[C@@H](O)[C@@H](O)C/C=C\CCC(=O)O [RvD1, 7S,8R,17S-trihydroxy-4Z,9E,11E,13Z,15E,19Z-docosahexaenoic acid]
- levels of CD4+ and CD8+ cells in the liver [1]: markedly downregulated

Structure (SMILES): CCC(=O)/C=C/C=C\C[C@@H](O)/C=C/C=C/C=C\[C@@H](O)CCCC(=O)O [Compound 18-oxo-RvE1, 18-oxo-RvE1]
- activity in zymosan-induced peritonitis (PMN recruitment) [2]: devoid of activity

Structure (SMILES): CC[C@@H](O)/C=C/C=C\C[C@@H](O)/C=C/C=C/C=C\[C@@H](O)CCCC(=O)O [Compound 1, bis RvE1 Mg-di-lysinate]
- tumor volume (Day 15 vs Day 0), efficacy as a single agent vs placebo (MC-38 cells; Q3D): effective as a single agent
- tumor volume (Day 15 vs Day 0), efficacy as a single agent vs placebo (MC-38 cells; QD): effective as a single agent
- markers of NK, CD8+ T cells, Th1 cells, and memory T cells (CD8+ and CD4+), gene expression (subcutaneous KPC tumors): increase
- markers of monocytes and DC cell subset (cDCs, pDCs, and iDCs), gene expression (subcutaneous KPC tumors): increase
- plasma levels of RvE1 over time [3]: rapid depletion
- tumor volume (Day 20 vs Day 0), inhibition relative to placebo control (Panc2-H7 cells; 30 ug/kg, Q7D): demonstrated inhibition relative to placebo control
- tumor volume (Day 20 vs Day 0), inhibition relative to placebo control (Panc2-H7 cells; 30 ug/kg, QD): demonstrated inhibition relative to placebo control
- tumor volume (Day 20 vs Day 0), inhibition relative to placebo control (Panc2-H7 cells; 300 ug/kg, Q7D, P<0.05 vs placebo control): greatest inhibition
- tumor volume (Day 20 vs Day 0), inhibition relative to placebo control (Panc2-H7 cells; 300 ug/kg, QD): demonstrated inhibition relative to placebo control

Structure (SMILES): CC[C@@H](O)/C=C/C=C\C[C@@H](O)/C=C/C=C/C=C\[C@@H](O)CCCC(=O)O [RvE1, 5S,12R,18R-trihydroxy-6Z,8E,10E,14Z,16E-eicosapentaenoic acid]
- activity in zymosan-induced peritonitis (PMN recruitment) [2]: potently reduced
- levels of CD4+ and CD8+ cells in the liver [1]: markedly downregulated

Structure (SMILES): CC[C@@H](O)/C=C/C=C\C[C@@H](O)/C=C/C=C/C=C\[C@@H](O)CCCC(=O)[O-].[Na+] [RvE1-Na]
- plasma and lung tissue levels of RvE1 over time ([4]; 1 or 10 mg/kg IV injection): rapid depletion
- plasma and lung tissue levels of RvE1 over time ([4]; 1 or 10 mg/kg oral gavage): rapid depletion
- plasma and lung tissue levels of RvE1 over time ([4]; 1 or 10 mg/kg subcutaneous injection): rapid depletion
